pIC50: −log10 of the molar value. Values belong to the compound of their own block, whether it stands above or below them.
Key:
[1] = tested on: Pseudomonas aeruginosa; test: Inhibition of quorum sensing system in Pseudomonas aeruginosa MH602 expressing PlasB::gfp assessed as inhibition of GFP fluorescence expression at 250 uM incubated for 15 hrs by fluorescence microplate reader analysis
[2] = Inhibition of Escherichia coli DH5alpha LasR co-expressing LasR beta-galactosidase reporter assessed as inhibition of beta-galactosidase activity incubated for 2 hrs by spectrophotometric assay
[3] = tested on: Escherichia coli; test: Inhibition of Escherichia coli DH5alpha LasR co-expressing LasR beta-galactosidase reporter assessed as inhibition of beta-galactosidase activity at 100 uM incubated for 2 hrs by spectrophotometric assay
[4] = target: T1, Transcriptional activator protein LasR (Pseudomonas aeruginosa (strain ATCC 15692 / PAO1 / 1C / PRS 101 / LMG12228), UniProt P25084); test: Antagonist activity against LasR-mediated quorum sensing system in Pseudomonas aeruginosa PAO1 by spectrophotometric assay
T1 sequence (P25084 whole entry): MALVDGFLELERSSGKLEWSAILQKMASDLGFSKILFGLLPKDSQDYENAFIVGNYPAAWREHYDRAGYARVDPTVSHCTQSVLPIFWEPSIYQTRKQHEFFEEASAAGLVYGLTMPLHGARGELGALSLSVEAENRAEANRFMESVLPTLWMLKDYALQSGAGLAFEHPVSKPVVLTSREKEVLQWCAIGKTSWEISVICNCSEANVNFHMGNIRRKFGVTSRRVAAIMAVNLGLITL

[5] = Antagonist activity against quorum sensing system in Vibrio harveyi BB120 assessed as inhibition of […] incubated for 5 hrs by bioluminescence assay
[6] = Inhibition of quorum sensing system in Chromobacterium violaceum CV026 assessed as inhibition of violacein production incubated for 16 to 18 hrs by spectrophotometric assay

SMILES: O=C(CNc1ccc(C(=O)/C=C/c2ccccc2Cl)cc1)N[C@H]1CCOC1=O
- pIC50 [4]: 4.17

SMILES: CCOC(=O)CC(=O)c1ccc(Cl)cc1
- pIC50 [5]: 4.28

SMILES: C=CCN1CC(Cl)=C(Cl)C1=O
- inhibition [1]: 76.4%

SMILES: O=C(CNc1ccc(C(=O)/C=C/c2ccc(Cl)c(Cl)c2)cc1)N[C@H]1CCOC1=O
- pIC50 [4]: 4.33

SMILES: CCOC(=O)CC(=O)c1cccc(C)c1
- pIC50 [5]: 4.25

SMILES: CCOC(=O)CC(=O)c1ccc(C)cc1
- pIC50 [5]: 4.02

SMILES: O=C(CNc1ccc(C(=O)/C=C/c2ccccc2)cc1)N[C@H]1CCOC1=O
- pIC50 [4]: 4.20

SMILES: CCCCCc1cn(CC(=O)N[C@H]2CCOC2=O)nn1
- pIC50 [2]: 5.49
- inhibition [3]: 55%

SMILES: CCOC(=O)CC(=O)c1cccc([N+](=O)[O-])c1
- pIC50 [5]: 4.15

SMILES: Nc1cccc(-n2cc(CCC(=O)N[C@H]3CCOC3=O)nn2)c1
- pIC50 [2]: 5.39

SMILES: O=C(Cn1cc(-c2cc(F)cc(F)c2)nn1)N[C@H]1CCOC1=O
- pIC50 [2]: 4.86
- inhibition [3]: 71%

SMILES: O=C(Nc1ccc(S(=O)(=O)N[C@H]2CCOC2=O)cc1)c1ccc(Cl)cc1
- pIC50 [6]: 4.80

SMILES: O=C(Nc1ccc(S(=O)(=O)N[C@H]2CCOC2=O)cc1)c1cccc(F)c1
- pIC50 [6]: 5.11

SMILES: CCCCCC(=O)Nc1ccc(S(=O)(=O)N[C@H]2CCOC2=O)cc1
- pIC50 [6]: 4.54

SMILES: COc1ccc(-n2cc(CCC(=O)N[C@H]3CCOC3=O)nn2)cc1
- pIC50 [2]: 4.78
- inhibition [3]: 75%

SMILES: O=C(Nc1ccc(S(=O)(=O)N[C@H]2CCOC2=O)cc1)c1ccc(F)cc1
- pIC50 [6]: 4.83

SMILES: O=C(Nc1ccc(S(=O)(=O)N[C@H]2CCOC2=O)cc1)c1ccccc1
- pIC50 [6]: 4.76

SMILES: O=C(CNc1ccc(C(=O)/C=C/c2ccc(Br)cc2F)cc1)N[C@H]1CCOC1=O
- pIC50 [4]: 4.58

SMILES: CCOC(=O)CC(=O)c1ccc([N+](=O)[O-])cc1
- pIC50 [5]: 4.28

SMILES: O=C(CNc1ccc(C(=O)/C=C/c2cc(Cl)cc(Cl)c2)cc1)N[C@H]1CCOC1=O
- pIC50 [4]: 4.33

SMILES: CCOC(=O)CC(=O)c1ccc(OC)cc1
- pIC50 [5]: 4.44

SMILES: O=C(Cn1cc(C2CC2)nn1)N[C@H]1CCOC1=O
- inhibition [3]: 52%

SMILES: O=C(CNc1ccc(C(=O)/C=C/c2ccc(F)cc2)cc1)N[C@H]1CCOC1=O
- pIC50 [4]: 4.33

SMILES: CCOC(=O)CC(=O)c1cccc(OC)c1
- pIC50 [5]: 4.39

Continued, values first:

- inhibition [1]: 68%
SMILES: CCCCCCN1CC(Cl)=C(Cl)C1=O

- pIC50 [2]: 4.80
- inhibition [3]: 89.6%
SMILES: O=C(Cn1cc(-c2ccccc2)nn1)N[C@H]1CCOC1=O

- pIC50 [4]: 4.33
SMILES: O=C(CNc1ccc(C(=O)/C=C/c2ccc(Br)cc2)cc1)N[C@H]1CCOC1=O

- pIC50 [2]: 4.96
- inhibition [3]: 72%
SMILES: Cc1ccc(-n2cc(CCC(=O)N[C@H]3CCOC3=O)nn2)cc1

- pIC50 [4]: 4.25
SMILES: COc1cccc(/C=C/C(=O)c2ccc(NCC(=O)N[C@H]3CCOC3=O)cc2)c1

- pIC50 [5]: 4.12
SMILES: CCOC(=O)CC(=O)c1cccc2ccccc12

- pIC50 [4]: 4.33
SMILES: O=C(CNc1ccc(C(=O)/C=C/c2ccc(Cl)cc2)cc1)N[C@H]1CCOC1=O

- inhibition [1]: 30%
SMILES: CCCCNC(=O)c1ccc(N2CC(Cl)=C(Cl)C2=O)cc1

- pIC50 [6]: 5.07
SMILES: O=C(Nc1ccc(S(=O)(=O)N[C@H]2CCOC2=O)cc1)c1cccc(Cl)c1

- pIC50 [4]: 4.42
SMILES: O=C(CNc1ccc(C(=O)/C=C/c2ccccc2Br)cc1)N[C@H]1CCOC1=O

- pIC50 [5]: 4.12
SMILES: CCOC(=O)CC(=O)c1ccccc1

- pIC50 [5]: 4.41
SMILES: CCOC(=O)CC(=O)c1ccc(I)cc1

- pIC50 [6]: 5.31
SMILES: O=C(Nc1ccc(S(=O)(=O)N[C@H]2CCOC2=O)cc1)c1ccccc1C(F)(F)F

- pIC50 [5]: 4.09
SMILES: CCOC(=O)CC(=O)c1ccc(Br)cc1

- inhibition [1]: 30%
SMILES: O=C(NCc1ccccc1)c1ccc(N2CC(Cl)=C(Cl)C2=O)cc1

- inhibition [3]: 14%
SMILES: O=C(Cn1cc(CC2CCCCC2)nn1)N[C@H]1CCOC1=O

- pIC50 [6]: 5.78
SMILES: O=C(Nc1ccc(S(=O)(=O)N[C@H]2CCOC2=O)cc1)c1ccccc1Cl

- pIC50 [6]: 4.31
SMILES: CCCCC(=O)Nc1ccc(S(=O)(=O)N[C@H]2CCOC2=O)cc1

- pIC50 [5]: 4.64
SMILES: CCOC(=O)CC(=O)c1ccc(F)cc1

- pIC50 [6]: 5.79
SMILES: O=C(Nc1ccc(S(=O)(=O)N[C@H]2CCOC2=O)cc1)c1ccccc1F

- inhibition [1]: 71.4%
SMILES: CCCCN1CC(Cl)=C(Cl)C1=O

- inhibition [1]: 30%
SMILES: CCCCCCNC(=O)c1ccc(N2CC(Cl)=C(Cl)C2=O)cc1

Source: ChEMBL document CHEMBL5230154, “Chemical probe of AHL modulators on quorum sensing in Gram-Negative Bacteria and as antiproliferative agents: A review” (Eur J Med Chem, 2021)
